Measured values: patent publication US20240336638A1, “IMIDAZOLE COMPOUND, AND INTERMEDIATE AND APPLICATION THEREOF” (priority 2021, published 2024)

What was measured:
[1] = tested on: MCAO/R rats; experiment: Therapeutic administration (i.v.) in middle cerebral artery occlusion/reperfusion (MCAO/R) rats; assay type: in vivo, rat; settings: for Bleeding time / Brain water content (%) / Cerebral infarction rate (%) / Clotting time / Neurological function score: once a day for 3 days, mean ± SD, n = 8; for Neurological function score: modified Bederson score
Procedure: Male SD rats weighing 250 to 300 g were taken, and the rats in each group fasted for 12 hours before modeling, while water was not restricted. According to the method of Longa et al.^[1], a rat model of MCAO/R was established by occluding the blood flow of internal carotid artery using the thread embolization method. The rats were anesthetized with 3% chloral hydrate (300 mg/kg, 1 mL/100 g body weight) through intraperitoneal injection and fixed in the supine position on the operating table. A midline incision was made in the neck, and the right common carotid artery was isolated using forceps and threaded for later use. The external and internal carotid arteries were isolated from the bifurcation of the common carotid artery. A single thread was threaded through the internal carotid artery, and two threads were threaded through the external carotid artery. Both distal and proximal ends were ligated, and the middle part of the ligation site was cut using ophthalmic scissors. The proximal main trunk of the external carotid artery was isolated and reserved for later use. The prepared cotton thread was used to half-ligate the common carotid artery (tying a slipknot), and the thread prepared for the internal carotid artery was tightened with hemostatic forceps, temporarily occluding the blood flow of the internal carotid artery. A small incision at the proximal main trunk of the external carotid artery was made using ophthalmic scissors, and then, the fishing line was held with straight forceps, inserted from this incision, and slowly advanced through the isolated proximal main trunk of the external carotid artery towards the intracranial direction of the internal carotid artery. The advancement was stopped at a predetermined position, and then the thread of the internal carotid artery that was tightened with the hemostatic forceps was loosened. […] Another thread was threaded and tightened around the proximal main trunk of the external carotid artery and the fishing line that had already been inserted into the predetermined position. The half-ligated thread on the common carotid artery was then loosened, and the skin was subsequently sutured. After 2 hours of ischemia, a small section of the fishing line was pulled out. […] After rats in the blank control group were anesthetized, only the bifurcation of the internal and external carotid arteries was exposed without the occlusion of the MCA.
Successfully modeled rats (neurological function score of 3 after reperfusion) were taken and divided into 20 groups (8 rats for each) according to the random number table method. The groups were divided into a model control group, three dose groups (high, 12 mg/kg, 2.4 mg/mL; medium, 6 mg/kg, 1.2 mg/mL; low, 3 mg/kg, 0.6 mg/mL) for each of the six test compounds, and a positive drug Ozagrel group (6 mg/kg, 1.2 mg/mL), respectively. Both blank and model control groups were administered equal volumes of mixed solvents, and the rats in each group were administered by tail vein injection (i.v.) 2 hours after reperfusion, once a day for 3 consecutive days, with a volume of 0.5 mL/100 g body weight.
Ten minutes after the last administration, the neurological function of the animals was graded according to the modified Bederson scoring method. The standard is as follows[2]: • 0 point: no neurological symptoms; • 1 point: when the rat is suspended by lifting its tail, the forelimb on the surgical side of the rat was flexed and pressed against the chest wall; • 2 points: on a smooth plane, when the rat is pushed from the surgical side to the opposite side, the resistance is less than when it is moved to the same side; • 3 points: the animal moves around or in circles when moving freely; • 4 points: flaccid paralysis, no spontaneous movement of limbs.
After Bederson scoring, the rats were executed by cervical dislocation, and the whole brain was removed and weighed. After weighing, the whole brain was placed in a −20° C. refrigerator for 20 minutes. […]

[2] = tested on: AA-induced platelet aggregation; experiment: Inhibitory effect on AA-induced platelet aggregation in rats in vitro (washed platelets); assay type: cell-based, rat; settings: 1*10^−4 M
[3] = medium dose 6 mg/kg i.v. (Ozagrel group 6 mg/kg)

O=C(O)[C@@H]1C[C@H]1c1ccc(Cn2ccnc2)cc1 [Compound 19, (1R,2R)-2-(4-((1H-Imidazol-1-yl)methyl)phenyl)cyclopropane-1-carboxylic acid]
Bleeding time ([1]; high dose 12 mg/kg i.v.): 304.75 ± 35.16 s | Brain water content (%) ([1]; high dose 12 mg/kg i.v.): 80.84 ± 1.04% | Cerebral infarction rate (%) ([1]; high dose 12 mg/kg i.v.): 13.48% | Clotting time ([1]; high dose 12 mg/kg i.v.): 151.19 ± 21.35 s | Neurological function score ([1]; high dose 12 mg/kg i.v.): 1.75 ± 0.89 | reducing the infarct area (smallest mean infarct rate) ([1]; high doses, comparison among test drugs): more advantageous | cerebral edema in rats ([1]; low and medium doses): did not significantly improve | Bleeding time ([1]; low dose 3 mg/kg i.v.): 272.38 ± 52.89 s | Brain water content (%) ([1]; low dose 3 mg/kg i.v.): 82.40 ± 1.50 % | Cerebral infarction rate (%) ([1]; low dose 3 mg/kg i.v.): 28.23 ± 2.76% | Clotting time ([1]; low dose 3 mg/kg i.v.): 136.25 ± 36.28 s | Neurological function score ([1]; low dose 3 mg/kg i.v.): 2.00 ± 0.53 | Bleeding time [1, 3]: 274.13 ± 47.46 s | Brain water content (%) [1, 3]: 81.92 ± 1.66 % | Cerebral infarction rate (%) [1, 3]: 22.38% | Clotting time [1, 3]: 148.63 ± 28.41 s | Neurological function score [1, 3]: 2.00 ± 0.76 | significant inhibition of AA-induced platelet aggregation [2]: can significantly inhibit
